Data taken from ChEMBL document CHEMBL1201862, “PubChem BioAssay data set” (2004).
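Briefly, cells in 96-well plates were exposed to five compound concentrations for 48 h, and endpoints were estimated by linear interpolation. GI50 is the concentration that inhibits growth by half.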 Calls of active or inactive are those of the source. Cut-off read from the data, not from the text of the source: active = GI50 up to about 1.1 µM and inactive = higher.

Assays:
Assay in all cases: inhibition of tumour cell growth, NCI panel, 48 h
[1] = system: A498
[2] = system: A549
[3] = system: ACHN
[4] = system: COLO 205
[5] = system: EKVX
[6] = system: IGROV-1
[7] = system: KM12
[8] = system: Malme-3M
[9] = system: NCI-H226
[10] = system: NCI-H23
[11] = system: NCI/ADR-RES
[12] = system: OVCAR-4
[13] = system: OVCAR-5
[14] = system: OVCAR-8
[15] = system: SF-268
[16] = system: SK-OV-3
[17] = system: UACC-257
[18] = system: UACC-62
[19] = system: CCRF-CEM
[20] = system: MCF7

Measured: GI50

COc1ccc2c(c1)OCC1=C2Oc2ccccc2C1
inactive: [1] > 100 µM | [2] 48.5 µM | [3] 37.4 µM | [4] 22.5 µM | [5] 30.3 µM | [6] 7.19 µM | [7] 55.8 µM | [8] > 100 µM | [9] 27 µM | [10] 53.2 µM | [11] 44.4 µM | [12] 31.6 µM | [13] 30.1 µM | [14] 55.6 µM | [15] 81.3 µM | [16] 85.3 µM | [17] 31.2 µM | [18] 69 µM

COC(=O)/C=C/c1cc2c(cc1-c1c(C(=O)O)cc(OC)c(OC)c1OC)OCO2
inactive: [2] > 10 µM | [3] > 10 µM | [19] > 10 µM | [4] > 10 µM | [6] > 10 µM | [7] > 10 µM | [20] > 10 µM | [8] > 10 µM | [10] > 10 µM | [11] > 10 µM | [12] > 10 µM | [14] > 10 µM | [15] > 10 µM | [16] > 10 µM | [17] > 10 µM | [18] > 10 µM

CCc1ccccc1NC(=O)/C=C/c1ccccc1
inactive: [1] > 100 µM | [2] > 100 µM | [3] > 100 µM | [19] > 100 µM | [4] > 100 µM | [5] > 100 µM | [7] > 100 µM | [20] > 100 µM | [8] > 100 µM | [9] > 100 µM | [10] > 100 µM | [12] > 100 µM | [13] > 100 µM | [14] > 100 µM | [15] > 100 µM | [16] > 100 µM | [17] > 100 µM | [18] > 100 µM

NC(=O)[N+](=CC(=S)Nc1ccccc1Cl)C(N)=O
inactive: [2] > 100 µM | [3] > 100 µM | [19] > 100 µM | [4] > 100 µM | [5] > 100 µM | [6] > 100 µM | [7] > 100 µM | [20] > 100 µM | [9] > 100 µM | [10] > 100 µM | [11] > 100 µM | [12] > 100 µM | [13] > 100 µM | [14] > 100 µM | [15] > 100 µM | [16] > 100 µM | [17] > 100 µM | [18] > 100 µM

OCC1O[C@H](O[C@@H]2CCCN3CC(O)C(O)[C@@H]23)C(O)C(O)C1O (stereo not given in full)
inactive: [1] > 100 µM | [2] > 100 µM | [3] > 100 µM | [19] > 100 µM | [4] > 100 µM | [5] > 100 µM | [6] > 100 µM | [7] > 100 µM | [8] > 100 µM | [9] > 100 µM | [10] > 100 µM | [12] > 100 µM | [13] > 100 µM | [14] > 100 µM | [15] > 100 µM | [16] > 100 µM | [17] > 100 µM | [18] > 100 µM

O=C(/C=C/C1C(=O)NC(=O)NC1=O)CC(=O)C(=O)Nc1cc(Cl)c(Cl)cc1Cl
inactive: [1] > 100 µM | [2] > 100 µM | [3] > 100 µM | [19] > 100 µM | [4] > 100 µM | [5] > 100 µM | [6] > 100 µM | [7] > 100 µM | [8] > 100 µM | [9] > 100 µM | [10] > 100 µM | [12] > 100 µM | [13] > 100 µM | [14] > 100 µM | [15] > 100 µM | [16] > 100 µM | [17] > 100 µM | [18] > 100 µM

CCOC(=O)NC(NCC(O)c1ccccc1)(C(F)(F)F)C(F)(F)F (stereo not given)
inactive: [1] > 100 µM | [2] > 100 µM | [3] > 100 µM | [19] > 100 µM | [5] > 100 µM | [6] > 100 µM | [7] > 100 µM | [20] > 100 µM | [8] > 100 µM | [9] > 100 µM | [10] > 100 µM | [13] > 100 µM | [15] > 100 µM | [16] > 100 µM | [17] > 100 µM | [18] > 100 µM

CCOC(=O)CC/C(C)=N\n1c(Cc2ccc(Cl)cc2)n[nH]c1=O
inactive: [2] > 100 µM | [3] > 100 µM | [6] > 100 µM | [7] > 100 µM | [20] > 100 µM | [8] > 100 µM | [9] > 100 µM | [10] > 100 µM | [11] > 100 µM | [13] 14.3 µM | [14] > 100 µM | [15] > 100 µM | [17] > 100 µM | [18] > 100 µM

c1ccc(/N=c2\snc3scc(-c4ccccc4)n23)cc1
inactive: [1] > 100 µM | [2] 37.5 µM | [3] 48 µM | [19] 43.8 µM | [4] 31.5 µM | [5] 90.2 µM | [6] 41.8 µM | [7] 36.5 µM | [8] 31.6 µM | [9] 26.7 µM | [10] 36.6 µM | [12] 39.6 µM | [13] > 100 µM | [14] 48.6 µM | [15] 50.1 µM | [16] 84.1 µM | [17] 32.5 µM | [18] 30.1 µM

CC1(C)OP(=O)(c2ccccc2)C=C1Br (stereo not given)
inactive: [1] > 100 µM | [2] > 100 µM | [3] > 100 µM | [4] > 100 µM | [5] > 100 µM | [6] > 100 µM | [7] > 100 µM | [8] > 100 µM | [9] > 100 µM | [10] > 100 µM | [11] > 100 µM | [12] > 100 µM | [13] > 100 µM | [14] > 100 µM | [15] > 100 µM | [16] > 100 µM | [17] > 100 µM | [18] > 100 µM

N#C/C(N)=C(C#N)/N=C/N
inactive: [2] > 100 µM | [3] > 100 µM | [19] > 100 µM | [4] > 100 µM | [5] > 100 µM | [6] > 100 µM | [7] > 100 µM | [20] > 100 µM | [8] > 100 µM | [10] > 100 µM | [11] > 100 µM | [12] > 100 µM | [13] > 100 µM | [14] > 100 µM | [15] > 100 µM | [16] > 100 µM | [17] > 100 µM | [18] > 100 µM
